What was measured:
[1] = molecular target: T1, VIM-2 metallo β-lactamase (Pseudomonas aeruginosa, UniProt Q9K2N0); experiment: β-lactamase enzyme inhibition, VIM-2; format: biochemical; settings: Nitrocefin 100 μM, 486 nm; 15 min at 37° C. preincubation; read-out: IC50 VIM-2 (Class B)
T1 construct: made in house; host or cells: E. coli BL21(DE3)
In short: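 VIM-2 purified by Q sepharose anion exchange (50 mM Hepes pH 7.5, 0-600 mM NaCl gradient, two runs, >90% purity). Enzyme preincubated with inhibitor 15 min at 37° C; nitrocefin 100 μM final, absorbance at 486 nm followed 10 min. IC50 from initial hydrolysis rates versus inhibitor-free controls.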

[2] = tested on: P. aeruginosa Ps296 expressing VIM-2; experiment: broth microdilution MIC, P. aeruginosa VIM-2; format: cell-based; settings: Fixed Mero (meropenem) 4 μg/mL
In short: (§1)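 First, strains were grown 3-5 hours in CAMHB; then compound dilutions (32 to 0.25 μg/mL final) received a beta-lactam overlay at 4 μg/mL final. Finally, plates were inoculated per CLSI and incubated 16-20 hours at 37° C.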

p99 AmpC β-lactamase = molecular target: T2, p99 AmpC β-lactamase (Enterobacter cloacae, UniProt P05364); experiment: β-lactamase enzyme inhibition, p99 AmpC; format: biochemical
T2 construct: made in house; host or cells: E. coli BL21(DE3)
In short: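 Native untagged E. cloacae p99 AmpC was expressed in E. coli BL21(DE3) and purified by cation exchange and gel filtration. Enzyme was preincubated with inhibitor at 37°C for 15 min.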

[3] = tested on: K. pneumoniae A-1797 expressing KPC-2 and VIM-4; experiment: broth microdilution MIC, K. pneumoniae KPC-2 and VIM-4; format: cell-based; settings: Fixed Mero (meropenem) 4 μg/mL
In short: as §1

KPC-2 β-lactamase = molecular target: T3, KPC-2 β-lactamase (Klebsiella pneumoniae, UniProt Q9F663); experiment: β-lactamase enzyme inhibition, KPC-2; format: biochemical; settings: imipenem substrate, 300 nm; 15 min at 37° C. preincubation; read-out: IC50 KPC-2 (Class A)
T3 construct: made in house; host or cells: E. coli BL21(DE3)
In short: (§2)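 Native untagged enzymes expressed in E. coli BL21(DE3) and purified by cation exchange and gel filtration were preincubated with inhibitor for 15 min at 37° C. Hydrolysis was followed for 10 min: nitrocefin (100 μM final, 486 nm) for OXA-1 and p99 AmpC, imipenem (300 nm) for KPC-2, cefotaxime (260 nm) for SHV-5; IC50 from initial rates.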

OXA-1 β-lactamase = molecular target: T4, OXA-1 β-lactamase (Escherichia coli, UniProt P13661); experiment: β-lactamase enzyme inhibition, OXA-1; format: biochemical; settings: Nitrocefin 100 μM, 486 nm; 15 min at 37° C. preincubation; read-out: IC50 OXA-1 (Class D)
T4 construct: made in house; host or cells: E. coli BL21(DE3)
In short: as §2

[4] = tested on: K. pneumoniae 156319 expressing KPC-3; experiment: broth microdilution MIC, K. pneumoniae KPC-3; format: cell-based; settings: Fixed Mero (meropenem) 4 μg/mL
In short: as §1

SHV-5 β-lactamase = molecular target: T5, SHV-5 β-lactamase (Klebsiella pneumoniae, UniProt P0A3M1); experiment: β-lactamase enzyme inhibition, SHV-5; format: biochemical
T5 construct: made in house; host or cells: E. coli BL21(DE3)
In short: as §2

[5] = tested on: E. cloacae 144200 expressing Class C P99 AmpC; experiment: broth microdilution MIC, E. cloacae P99; format: cell-based; settings: Fixed CAZ (ceftazidime) 4 μg/mL
In short: as §1

[6] = tested on: E. coli ESBL4 expressing CTX-M-15; experiment: broth microdilution MIC, E. coli CTX-M-15; format: cell-based; settings: Fixed CAZ (ceftazidime) 4 μg/mL
In short: as §1

[7] = tested on: S. aureus MSSA-7 producing penicillinase PC-1; experiment: broth microdilution MIC, S. aureus PC-1; format: cell-based; settings: Fixed Pip (piperacillin) 4 μg/mL
In short: as §1

T5 sequence (P0A3M1 22-286): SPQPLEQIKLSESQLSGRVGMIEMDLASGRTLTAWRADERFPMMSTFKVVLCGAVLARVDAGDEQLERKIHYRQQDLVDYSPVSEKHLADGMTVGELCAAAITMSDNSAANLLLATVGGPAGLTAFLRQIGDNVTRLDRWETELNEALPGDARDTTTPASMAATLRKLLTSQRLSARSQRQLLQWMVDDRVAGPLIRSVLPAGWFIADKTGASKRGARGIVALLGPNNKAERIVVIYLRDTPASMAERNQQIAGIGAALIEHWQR
T3 sequence (Q9F663 25-293, looked up): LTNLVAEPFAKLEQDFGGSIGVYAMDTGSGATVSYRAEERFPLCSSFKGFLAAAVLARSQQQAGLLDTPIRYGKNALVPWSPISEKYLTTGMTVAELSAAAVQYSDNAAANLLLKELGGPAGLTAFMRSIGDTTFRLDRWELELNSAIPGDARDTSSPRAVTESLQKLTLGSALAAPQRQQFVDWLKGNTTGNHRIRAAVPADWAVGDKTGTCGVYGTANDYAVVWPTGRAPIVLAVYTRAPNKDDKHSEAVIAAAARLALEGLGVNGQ
T4 sequence (P13661 26-276): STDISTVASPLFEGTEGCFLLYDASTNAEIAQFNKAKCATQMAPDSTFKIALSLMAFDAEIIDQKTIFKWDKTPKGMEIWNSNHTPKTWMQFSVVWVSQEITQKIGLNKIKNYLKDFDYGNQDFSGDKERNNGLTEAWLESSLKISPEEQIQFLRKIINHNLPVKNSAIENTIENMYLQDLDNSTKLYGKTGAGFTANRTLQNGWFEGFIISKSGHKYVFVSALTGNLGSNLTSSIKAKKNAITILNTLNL
T2 sequence (P05364 21-381): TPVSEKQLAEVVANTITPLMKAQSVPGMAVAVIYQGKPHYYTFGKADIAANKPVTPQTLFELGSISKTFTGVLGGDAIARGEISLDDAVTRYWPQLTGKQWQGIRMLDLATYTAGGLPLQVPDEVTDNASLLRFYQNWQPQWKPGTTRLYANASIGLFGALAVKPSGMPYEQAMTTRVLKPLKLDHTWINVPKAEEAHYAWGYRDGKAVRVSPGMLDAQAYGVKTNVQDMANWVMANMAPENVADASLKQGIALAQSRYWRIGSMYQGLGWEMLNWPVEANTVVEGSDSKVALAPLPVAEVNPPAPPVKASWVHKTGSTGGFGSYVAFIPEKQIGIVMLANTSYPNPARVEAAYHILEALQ

| Structure (SMILES) | IC50 [1] | MIC of exemplary compounds in presence of fixed β-lactams, P. aerug. Ps296 VIM-2 [2] | IC50 (p99 AmpC β-lactamase) | MIC of exemplary compounds in presence of fixed β-lactams, K.P. A-1797 KPC-2 VIM-4 [3] | IC50 (KPC-2 β-lactamase) | IC50 (OXA-1 β-lactamase) | MIC of exemplary compounds in presence of fixed β-lactams, K.P. 156319 KPC-3 [4] | IC50 (SHV-5 β-lactamase) | MIC of exemplary compounds in presence of fixed β-lactams, E. cl. 144200 p99 AmpC [5] | MIC of exemplary compounds in presence of fixed β-lactams, E. coli ESBL4 CTX-M-15 [6] | MIC of exemplary compounds in presence of fixed β-lactams, S. aureus MSSA-7 PC-1 [7] |
| --- | --- | --- | --- | --- | --- | --- | --- | --- | --- | --- | --- |
| CS(=O)(=O)CCC(=O)N[C@H]1Cc2cccc(C(=O)O)c2OB1O [Example 21, (R)-2-Hydroxy-3-(3-methanesulfonyl-propionylamino)-3,4-dihydro-2H-benzo[e][1,2]oxaborinine-8-carboxylic acid] | 1 to 10 µM | A (A represents an MIC of the fixed β-lactam antibiotic in the presence of >32 g/mL of a β-lactamase inhibitor) | < 0.1 µM | B (B represents the MIC in the presence of between 8 and 32 g/mL of a β-lactamase inhibitor) | < 0.1 µM | < 0.1 µM | C (C represents the MIC in the presence of ≤4 g/mL of a β-lactamase inhibitor) | < 0.1 µM | C (C represents the MIC in the presence of ≤4 g/mL of a β-lactamase inhibitor) | C (C represents the MIC in the presence of ≤4 g/mL of a β-lactamase inhibitor) | C (C represents the MIC in the presence of ≤4 g/mL of a β-lactamase inhibitor) |
| O=C(CCN1C(=O)CCC1=O)N[C@H]1Cc2cccc(C(=O)O)c2OB1O [Example 34, (R)-3-[3-(2,5-Dioxo-pyrrolidin-1-yl)-propionylamino]-2-hydroxy-3,4-dihydro-2H-benzo[e][1,2]oxaborinine-8-carboxylicacid] | 1 to 10 µM | B (B represents the MIC in the presence of between 8 and 32 g/mL of a β-lactamase inhibitor) | < 0.1 µM | B (B represents the MIC in the presence of between 8 and 32 g/mL of a β-lactamase inhibitor) | < 0.1 µM | < 0.1 µM | B (B represents the MIC in the presence of between 8 and 32 g/mL of a β-lactamase inhibitor) | < 0.1 µM | C (C represents the MIC in the presence of ≤4 g/mL of a β-lactamase inhibitor) | C (C represents the MIC in the presence of ≤4 g/mL of a β-lactamase inhibitor) | C (C represents the MIC in the presence of ≤4 g/mL of a β-lactamase inhibitor) |
| CC(C)(Cl)CCC(=O)N[C@H]1Cc2cccc(C(=O)O)c2OB1O [Example 24, (R)-3-(4-chloro-4-methylpentanamido)-2-hydroxy-3,4-dihydro-2H-benzo[e][1,2]oxaborinine-8-carboxylicacid] | 1 to 10 µM | B (B represents the MIC in the presence of between 8 and 32 g/mL of a β-lactamase inhibitor) | < 0.1 µM | B (B represents the MIC in the presence of between 8 and 32 g/mL of a β-lactamase inhibitor) | < 0.1 µM | < 0.1 µM | C (C represents the MIC in the presence of ≤4 g/mL of a β-lactamase inhibitor) | < 0.1 µM | C (C represents the MIC in the presence of ≤4 g/mL of a β-lactamase inhibitor) | C (C represents the MIC in the presence of ≤4 g/mL of a β-lactamase inhibitor) | C (C represents the MIC in the presence of ≤4 g/mL of a β-lactamase inhibitor) |
| CON=C(C)CCC(=O)N[C@H]1Cc2cccc(C(=O)O)c2OB1O [Example 18, (R)-2-Hydroxy-3-(4-methoxyimino-pentanoylamino)-3,4-dihydro-2H-benzo[e][1,2]oxaborinine-8-carboxylic acid] | 1 to 10 µM | B (B represents the MIC in the presence of between 8 and 32 g/mL of a β-lactamase inhibitor) | < 0.1 µM | A (A represents an MIC of the fixed β-lactam antibiotic in the presence of >32 g/mL of a β-lactamase inhibitor) | < 0.1 µM | < 0.1 µM | C (C represents the MIC in the presence of ≤4 g/mL of a β-lactamase inhibitor) | < 0.1 µM | C (C represents the MIC in the presence of ≤4 g/mL of a β-lactamase inhibitor) | C (C represents the MIC in the presence of ≤4 g/mL of a β-lactamase inhibitor) | C (C represents the MIC in the presence of ≤4 g/mL of a β-lactamase inhibitor) |
